Test results as given in patent US20120165319A1, “INHIBITORS OF INTERLEUKIN-1 BETA CONVERTING ENZYME” (VERTEX PHARMACEUTICALS INCORPORATED, priority 1995, published 2012).
Like-named read-outs stand apart in the source and are kept apart here.

Tests used:
[1] = tested on: IL-1β, human whole blood; experiment: Whole blood assay for IL-1β production; assay type: cell-based; conditions: read-out: Whole human blood IC50
Experimental: The whole blood assay is a simple method for measuring the production of IL-1b (or other cytokines) and the activity of potential inhibitors. The complexity of this assay system, with its full complement of lymphoid and inflammatory cell types, spectrum of plasma proteins and red blood cells is an ideal in vitro representation of human in vivo physiologic conditions.
Pyrogen-free syringes (˜30 cc) Pyrogen-free sterile vacuum tubes containing lyophilized Na2EDTA (4.5 mg/10 ml tube) Human whole blood sample (˜30-50 cc) 1.5 ml eppendorf tubes Test compound stock solutions (˜25 mM in DMSO or other solvent) Endotoxin-free sodium chloride solution (0.9%) and HBSS Lipopolysaccharide (Sigma; Cat. # L-3012) stock solution at 1 mg/ml in HBSS
IL-1β ELISA Kit (R & D Systems; Cat # DLB50)
TNFα ELISA Kit (R & D Systems; Cat # DTA50)
Whole Blood Assay Experimental Procedure:
Set incubator or water bath at 30° C. Aliquot 0.25 ml of blood into 1.5 ml eppendorf tubes. Note: be sure to invert the whole blood sample tubes after every two aliquots. Differences in replicates may result if the cells sediment and are not uniformly suspended. Use of a positive displacement pipette will also minimize differences between replicate aliquots.
Prepare drug dilutions in sterile pyrogen-free saline by serial dilution. A dilution series which brackets the apparent Ki for a test compound determined in an ICE inhibition assay is generally used for the primary compound screen.
Add 25 μl test compound dilution or vehicle control and gently mix the sample. Then add 5.0 μl LPS solution (250 ng/ml stocked prepared fresh: 5.0 ng/ml final concentration LPS), and mix again. Incubate the tubes at 30° C. in a water bath for 16-18 hr with occasional mixing. Alternatively, the tubes can be placed in a rotator set at 4 rpm for the same incubation period. This assay should be set up in duplicate or triplicate with the following controls: negative control—no LPS; positive control—no test inhibitor; vehicle control—the highest concentration of DMSO or compound solvent used in the experiment. Additional saline is added to all control tubes to normalize volumes for both control and experimental whole blood test samples
After the incubation period, whole blood samples are centrifuged for 10 minutes at ˜2000 rpm in the microfuge, plasma is transferred to a fresh microfuge tube and centrifuged at 1000×g to pellet residual platelets if necessary. Plasma samples may be stored frozen at −70° C. prior to assay for cytokine levels by ELISA.
We have used R & D Systems (614 McKinley Place N.E. Minneapolis, Minn. 55413) Quantikine kits for measurement of IL-1β and TNF-α. The assays are performed according to the manufacturer's directions.
We have observed IL-1β levels of ˜1-5 ng/ml in positive controls among a range of individuals. A 1:200 dilution of plasma for all samples has been sufficient in our experiments for ELISA results to fall on the linear range of the ELISA standard curves. It may be necessary to optimize standard dilutions if you observe differences in the whole blood assay. Nerad, J. L. et al., J. Leukocyte Biol., 52, pp. 687-692 (1992).

[2] = target: T1, ICE (Homo sapiens, UniProt P29466); experiment: Enzyme assay with UV-visible substrate (visible ICE assay, Succinyl-Tyr-Val-Ala-Asp-pNitroanilide); assay type: biochemical
T1 sequence (P29466 120-297 limits assumed): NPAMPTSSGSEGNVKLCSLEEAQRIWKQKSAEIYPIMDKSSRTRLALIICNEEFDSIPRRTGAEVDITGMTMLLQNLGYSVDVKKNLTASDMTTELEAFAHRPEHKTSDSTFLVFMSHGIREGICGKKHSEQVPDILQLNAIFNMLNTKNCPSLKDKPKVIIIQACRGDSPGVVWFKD
T1 sequence (P29466 317-404 limits assumed): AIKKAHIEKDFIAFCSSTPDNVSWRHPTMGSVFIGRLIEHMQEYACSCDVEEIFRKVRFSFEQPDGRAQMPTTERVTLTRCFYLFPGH
How it was run: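 Human ICE was preincubated with inhibitor in DMSO and buffer for 15 min at room temperature, then succinyl-Tyr-Val-Ala-Asp-pNA was added. pNA release was followed at 405-603 nm for 20 min at 37° C. Ki and inhibition mode came from fitting rates to standard kinetic equations.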

[3] = tested on: IL-1β, human peripheral blood mononuclear cells (PBMC); experiment: PBMC cell assay: IL-1β assay with human PBMC or enriched adherent mononuclear cells, LPS-stimulated; assay type: cell-based
How it was run: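 Mature IL-1β is measured by ELISA in supernatants after 16–18 hr at 37 °C, 5% CO2, with LPS (5 ng/ml final) and test compound (0.1% DMSO final). Cells are human PBMC (6×10^6 cells/ml) or plate-adherent mononuclear cells (2.5−3.0×10^5 per well), and the 5–6 compound concentrations span the ICE Ki.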

[4] = Homo sapiens, * = values obtained upon reassay
[5] = * = values obtained upon reassay
[6] = Homo sapiens, PBMC, * = values obtained upon reassay

Structure (SMILES) | IC50 ([1]; Homo sapiens, Table 17) | Ki ([2]; Table 17) | IC50 ([3]; Homo sapiens, PBMC, Table 17) | IC50 [1, 4] | Ki ([2]; Table 5) | IC50 [3, 5] | IC50 [3, 6] | IC50 [1, 5]
CC(=O)OCC(=O)N1C[C@H](NC(=O)c2ccccc2)C(=O)N(CC(=O)N[C@H](C=O)CC(=O)O)c2ccccc21 [Compound 683, (3S)-3-[(3S)-2-Oxo-3-benzoylamino-5-(2-acetoxy)acetyl-2,3,4,5-tetrahydro-1H-1,5-benzodiazepine-1-acetylamino]-4-oxo-butyric acid] | > 20 µM | 0.4 µM | > 20 µM |  |  |  |  | 
COc1ccccc1C(=O)C(=O)N[C@H]1CN(C(C)=O)c2ccccc2N(CC(=O)N[C@H](C=O)CC(=O)O)C1=O [Compound 705] | 3.2 µM | 0.005 µM | 2.3 µM |  |  |  |  | 
Cn1c(C(=O)N[C@H]2CCC(=O)N3CCC[C@@H](C(=O)N[C@H](C=O)CC(=O)O)N3C2=O)cc2ccccc21 [Compound 433] |  |  |  | 1.1 µM | 0.0029 µM | 1.1 µM | 1 µM | 
O=C[C@H](CC(=O)O)NC(=O)[C@@H]1CCCN2C(=O)CC[C@H](NC(=O)/C=C/c3ccccc3)C(=O)N12 [Compound 494] |  |  |  | 7 µM | 0.015 µM | 1.5 µM | 1.35 µM | 
COc1ccc(C(=O)N[C@H]2CCC(=O)N3CCC[C@@H](C(=O)N[C@H](C=O)CC(=O)O)N3C2=O)cc1Cl [Compound 497] |  |  |  | 0.35 µM | 0.0035 µM |  | 0.74 µM | 0.7 µM
CC(=O)N1C[C@H](NC(=O)C(=O)c2c(C)cc(C)cc2C)C(=O)N(CC(=O)N[C@H](C=O)CC(=O)O)c2ccccc21 [Compound 709] | 14 µM | 0.01 µM | 2.1 µM |  |  |  |  | 
COCC(=O)N1C[C@H](NC(=O)c2cc(Cl)c(O)c(Cl)c2)C(=O)N(CC(=O)N[C@H](C=O)CC(=O)O)c2ccccc21 [Compound 689a, (3S)-3-[(3S)-2-Oxo-3-(3,5-dichloro-4-hydroxybenzoyl)amino-5-methoxyacetyl-2,3,4,5-tetrahydro-1H-1,5-benzodiazepine-1-acetylamino]-4-oxo-butyric acid] | 2.5 µM | 0.0008 µM | 0.91 µM |  |  |  |  | 
Nc1ccc(C(=O)N[C@H]2CN(C(=O)CO)c3ccccc3N(CC(=O)N[C@H](C=O)CC(=O)O)C2=O)cc1Cl [Compound 686] | 9 µM | 0.004 µM | 4 µM |  |  |  |  | 
O=C[C@H](CC(=O)O)NC(=O)[C@@H]1CCCN2C(=O)CC[C@H](NC(=O)c3cc4ccccc4s3)C(=O)N12 [Compound 453] |  |  |  | 1.9 µM | 0.00065 µM |  | 1.3 µM | 1.6 µM
CC(=O)N1C[C@H](NC(=O)c2ccc3cc(O)ccc3c2)C(=O)N(CC(=O)N[C@H](C=O)CC(=O)O)c2ccccc21 [Compound 622] |  |  |  | > 20 µM | 0.035 µM |  | 1.3 µM | 
CNC(=O)Nc1ccc(C(=O)N[C@H]2CCC(=O)N3CCC[C@@H](C(=O)N[C@H](C=O)CC(=O)O)N3C2=O)cc1 [Compound 489] |  |  |  | 15 µM | 0.006 µM | 1.7 µM | 2.25 µM | 
O=C[C@H](CC(=O)O)NC(=O)CN1C(=O)[C@@H](NC(=O)c2ccc3c(c2)OCO3)CN(C(=O)CO)c2ccccc21 [Compound 910] | 3.8 µM | 0.01 µM | 3.4 µM |  |  |  |  | 
CN(C)c1ccc(C(=O)N[C@H]2CN(C(=O)CO)c3ccccc3N(CC(=O)N[C@H](C=O)CC(=O)O)C2=O)cc1 [Compound 913] | 7 µM | 0.0045 µM | 2.4 µM |  |  |  |  | 
CC(=O)Nc1ccc(C(=O)N[C@H]2CN(C(C)=O)c3ccccc3N(CC(=O)N[C@H](C=O)CC(=O)O)C2=O)cc1 [Compound 627] |  |  |  | 8 µM | 0.043 µM |  | 3.25 µM | 
COCC(=O)N1C[C@H](NCc2ccc3ccccc3c2)C(=O)N(CC(=O)N[C@H](C=O)CC(=O)O)c2ccccc21 [Compound 640, (3S)-3-[(3S)-2-Oxo-3-(2-naphthylmethylene)amino-5-methoxyacetyl-2,3,4,5-tetrahydro-1H-1,5-benzodiazepine-1-acetylamino]-4-oxo-butyric acid] | 3.9 µM | 0.155 µM | 2.25 µM |  |  |  |  | 
O=C[C@H](CC(=O)O)NC(=O)[C@@H]1CCCN2C(=O)CCN(NC(=O)C(=O)c3ccccc3)C(=O)N12 [Compound 1106] | 1.7 µM | 0.075 µM | 4 µM |  |  |  |  | 
O=C[C@H](CC(=O)O)NC(=O)[C@@H]1CCCN2C(=O)CCN(NC(=O)C(=O)c3c[nH]c4ccccc34)C(=O)N12 [Compound 1108] | 2.6 µM | 0.022 µM | 1.4 µM |  |  |  |  | 
CC(=O)N1C[C@H](NC(=O)c2ccc3c(c2)OCO3)C(=O)N(CC(=O)N[C@H](C=O)CC(=O)O)c2ccccc21 [Compound 628] |  |  |  | > 20 µM | 0.036 µM |  | 2.75 µM | 
COc1ccc(C(=O)C(=O)N[C@H]2CN(C(C)=O)c3ccccc3N(CC(=O)N[C@H](C=O)CC(=O)O)C2=O)cc1 [Compound 704] | 9.8 µM | 0.03 µM | 2.6 µM |  |  |  |  | 
O=C[C@H](CC(=O)O)NC(=O)[C@@H]1CCCN2C(=O)CC[C@H](NC(=O)c3ccc4ccccc4n3)C(=O)N12 [Compound 411] |  |  |  | 1.9 µM | 0.0009 µM |  | 0.54 µM | 
COc1cccc(OC)c1C(=O)C(=O)N[C@H]1CCC(=O)N2CCC[C@@H](C(=O)N[C@H](C=O)CC(=O)O)N2C1=O [Compound 501] | 1.6 µM | 0.0025 µM | 1.8 µM |  |  |  |  | 
O=C[C@H](CC(=O)O)NC(=O)CN1C(=O)[C@@H](NC(=O)c2cccc3ccccc23)CN(C=O)c2ccccc21 [Compound 653, (3S)-3-[(3S)-2-Oxo-3-(1-naphthoyl)amino-5-formyl-2,3,4,5-tetrahydro-1H-1,5-benzodiazepine-1-acetylamino]-4-oxo-butyric acid] | 6 µM | 0.03 µM | 2.3 µM |  |  |  |  | 
COc1ccccc1C(=O)C(=O)NN1CCC(=O)N2CCC[C@@H](C(=O)N[C@H](C=O)CC(=O)O)N2C1=O [Compound 1111] | 4.4 µM | 0.018 µM | 6.05 µM |  |  |  |  | 
